Earlier results on one substance are cited in patent US6391860B1, “Method for preparation and use of paste formed by controlled reaction of sucralfate with hydrochloric acid” (priority 1999, dated 2002).

As to “aluminum hydroxide salt of sucrose octasulfate [Sucralfate]”, the “solubility in most polar and non-polar solvents” value is given as “insoluble”; the “solubility in strong acid and strong alkali” value is “soluble”.
